The source of these data is patent US20250345277A1, “Ionizable Liposome, Preparation Thereof, and Application Thereof in Gene Delivery” (MAXIRNA (ZHEJIANG) TECHNOLOGY CO. LTD., priority 2021, published 2025).

One data set has as its system DC2.4 cells. Put plainly: In vitro transfection of DC2.4 cells with EGFP mRNA LNP preparation (flow cytometry). It counts as cell-based, mouse. The following applies: for Cell Viability / Positive Rate (EGFP) / Fluorescence Intensity: DC2.4 cells; for Cell Viability / Positive Rate (EGFP): EGFP mRNA LNP, 200 ng mRNA per well, flow cytometry; for Fluorescence Intensity: EGFP mRNA expression level, normalized based on the sample with the highest fluorescence intensity. The method, boiled down:
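DC2.4 is a mouse bone marrow-derived dendritic cell line, grown adherent at 37 °C, 5% CO2 and passaged with trypsin at 80-90% confluence. The EGFP mRNA LNP preparation was diluted in serum-free Opti-MEM to 1 μg/ml mRNA for transfection.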
On the technique in general: A flow cytometer gives signals particle by particle.

A further data set deals with Jurkat cells. The data set is described as follows: In vitro transfection of Jurkat cells with EGFP mRNA LNP preparation. In kind it is cell-based, human. The source says:
(§1) The description is based on peripheral blood mononuclear cells PBMC (Shanghai Oribiotech Co., Ltd.), human peripheral blood leukemia T cell Jurkat (ATCC), tumor infiltrating lymphocyte TIL (isolated from resected tumor tissue of a liver cancer patient, the preparation method refers to CN114763530A), mouse bone marrow-derived dendritic cells DC2.4 (Cell Bank of the Chinese Academy of Sciences), and Chinese hamster ovary cells CHO (ATCC) were used as verified cell lines for liposome transfection. PBMC, Jurkat, and TIL cells grew in suspension, while DC2.4 and CHO cells grew by adherent culture. All the operation steps of cell culture must strictly abide by the prescribed procedures, and sterile reagents is used to perform aseptic operations under a sterile workbench. The main steps are as follows: • 1) Cell recovery: the preserved cell cryopreservation solution was taken out of the −80° C. refrigerator, and was immediately put in a 37° C. water bath for rapid and continuous shaking, and was completely melted within one minute. […] The culture bottle was placed in a 5% CO2 incubator and incubated at 37° C., and the recovery time was recorded. • 2) Cell subculture: Under the microscope, if the cell density in the field of view reaches 80%-90%, the cells can be subcultured. […]

The test system of the next data set is CHO cells. Put plainly: In vitro transfection of CHO cells with EGFP mRNA LNP preparation. It counts as cell-based, Chinese hamster.
From the text: as §1

`CCCCCCCCCCC(O)CN(CCN1CCN(CCN(CCN(CC(O)CCCCCCCCCC)CC(O)CCCCCCCCCC)CCN(CC(O)CCCCCCCCCC)CC(O)CCCCCCCCCC)CC1)CC(O)CCCCCCCCCC` (stereo not drawn) [A-C12]: in the data set with DC2.4 cells, the “Cell Viability” value is recorded as 87.1%, the “Positive Rate (EGFP)” value was found to be 73.3% and the “Fluorescence Intensity” value is on record as 0.84.

Take `CCCCCCCCCCCCC(O)CN(CCN1CCN(CCN(CCN(CC(O)CCCCCCCCCCCC)CC(O)CCCCCCCCCCCC)CCN(CC(O)CCCCCCCCCCCC)CC(O)CCCCCCCCCCCC)CC1)CC(O)CCCCCCCCCCCC` (stereo not drawn) [A-C14]: in the data set on DC2.4 cells, the “Cell Viability” value is reported as 95.4%, the “Positive Rate (EGFP)” value amounted to 92.3% and the “Fluorescence Intensity” value is reported as 0.30.

Take `CCCCCCCCCCCCCCC(O)CN(CCN1CCN(CCN(CCN(CC(O)CCCCCCCCCCCCCC)CC(O)CCCCCCCCCCCCCC)CCN(CC(O)CCCCCCCCCCCCCC)CC(O)CCCCCCCCCCCCCC)CC1)CC(O)CCCCCCCCCCCCCC` (stereo not drawn) [A-C16]: in the data set with DC2.4 cells, the “Cell Viability” value came to 90.0%, the “Positive Rate (EGFP)” value stood at 66.3% and the “Fluorescence Intensity” value came out at 0.80.

Consider `CCCCCCCCCCCCCCCCC(O)CN(CCN1CCN(CCN(CCN(CC(O)CCCCCCCCCCCCCCCC)CC(O)CCCCCCCCCCCCCCCC)CCN(CC(O)CCCCCCCCCCCCCCCC)CC(O)CCCCCCCCCCCCCCCC)CC1)CC(O)CCCCCCCCCCCCCCCC` (stereo not drawn) [A-C18], for which, in the data set with DC2.4 cells, the “Cell Viability” value was 93.0%, the “Positive Rate (EGFP)” value is 61.9% and the “Fluorescence Intensity” value worked out at 0.87.

In the case of `CCCCCCCCCCC(O)CN(CCOCCN(CCOCCN(CC(O)CCCCCCCCCC)CC(O)CCCCCCCCCC)CCN1CCN(CCOCCN(CC(O)CCCCCCCCCC)CC(O)CCCCCCCCCC)CC1)CC(O)CCCCCCCCCC` (stereo not drawn) [B-C12, 19-(2-(4-(2-(2-(di(2-hydroxydodecyl)amino)ethoxy)ethyl)piperazin-1-yl)ethyl)-13, 15-bis(2-hydroxydodecyl)-16,22-dioxa-13,19,25-triazaheptakadecane-11,27-diol], in the data set with DC2.4 cells, the “Cell Viability” value turned out to be 85.0%, the “Positive Rate (EGFP)” value was 83.0% and the “Fluorescence Intensity” value came to 0.20.

`CCCCCCCCCCCCC(O)CN(CCOCCN(CCOCCN(CC(O)CCCCCCCCCCCC)CC(O)CCCCCCCCCCCC)CCN1CCN(CCOCCN(CC(O)CCCCCCCCCCCC)CC(O)CCCCCCCCCCCC)CC1)CC(O)CCCCCCCCCCCC` (stereo not drawn) [B-C14]: the “cell viability by flow cytometry (FIG. 1)” value in the data set on Jurkat cells (after in vitro transfection, ApoE4 did not affect viability) is recorded as “high viability”; with CHO cells (after in vitro transfection), “high viability”; in the data set on DC2.4 cells (DC2.4, after in vitro transfection), “high viability”. Besides, the “transfection efficiency (FIG. 2)” value in the data set with Jurkat cells (in the absence of AopE4) is “high transfection efficiency”; in the data set on CHO cells (in the absence of AopE4) it was “high transfection efficiency”; in the data set on DC2.4 cells (DC2.4, in the absence of AopE4), “high transfection efficiency”. In addition, the “Cell Viability” value with DC2.4 cells amounted to 95.0%. The “Positive Rate (EGFP)” value in the data set with DC2.4 cells is reported as 90.2%. For the same compound, the “Fluorescence Intensity” value in the data set with DC2.4 cells turned out to be 1.00.

As for `CCCCCCCCCCC(O)CN(CCOCCOCCN(CCOCCOCCN(CC(O)CCCCCCCCCC)CC(O)CCCCCCCCCC)CCN1CCN(CCOCCOCCN(CC(O)CCCCCCCCCC)CC(O)CCCCCCCCCC)CC1)CC(O)CCCCCCCCCC` (stereo not drawn) [C-C12], in the data set with DC2.4 cells, the “Cell Viability” value is recorded as 94.0%, the “Positive Rate (EGFP)” value is recorded as 64.4% and the “Fluorescence Intensity” value was 0.71.

For the compound `CCCCCCCCCCC(O)CN(CCOCCOCCOCCN(CCOCCOCCOCCN(CC(O)CCCCCCCCCC)CC(O)CCCCCCCCCC)CCN1CCN(CCOCCOCCOCCN(CC(O)CCCCCCCCCC)CC(O)CCCCCCCCCC)CC1)CC(O)CCCCCCCCCC` [D-C12], in the data set with DC2.4 cells, the “Cell Viability” value came to 90.8%, the “Positive Rate (EGFP)” value is given as 65.6% and the “Fluorescence Intensity” value is 0.07.

For `CCCCCCCCCCCCC(O)CN(CCOCCOCCOCCN(CCOCCOCCOCCN(CC(O)CCCCCCCCCCCC)CC(O)CCCCCCCCCCCC)CCN1CCN(CCOCCOCCOCCN(CC(O)CCCCCCCCCCCC)CC(O)CCCCCCCCCCCC)CC1)CC(O)CCCCCCCCCCCC` [D-C14], in the data set with DC2.4 cells, the “Cell Viability” value stood at 91.3%, the “Positive Rate (EGFP)” value was found to be 96.7% and the “Fluorescence Intensity” value came to 0.95.

Turning to `CCCCCCCCCCCCCCC(O)CN(CCOCCOCCOCCN(CCOCCOCCOCCN(CC(O)CCCCCCCCCCCCCC)CC(O)CCCCCCCCCCCCCC)CCN1CCN(CCOCCOCCOCCN(CC(O)CCCCCCCCCCCCCC)CC(O)CCCCCCCCCCCCCC)CC1)CC(O)CCCCCCCCCCCCCC` [D-C16], in the data set with DC2.4 cells, the “Cell Viability” value amounted to 91.1%, the “Positive Rate (EGFP)” value turned out to be 71.7% and the “Fluorescence Intensity” value was 0.82.

Take `CCCCCCCCCCCCCCCCC(O)CC(CCOCCOCCOCCN(CCOCCOCCOCCN(CC(O)CCCCCCCCCCCCCCCC)CC(O)CCCCCCCCCCCCCCCC)CCN1CCN(CCOCCOCCOCCN(CC(O)CCCCCCCCCCCCCCCC)CC(O)CCCCCCCCCCCCCCCC)CC1)CC(O)CCCCCCCCCCCCCCCC` [D-C18]: in the data set on DC2.4 cells, the “Cell Viability” value stood at 81.5%, the “Positive Rate (EGFP)” value was 64.4% and the “Fluorescence Intensity” value is 0.45.

On to `CCCCCCCCCCCCC(O)CN(CCN(CCN1CCN(C)CC1)CCN(CC(O)CCCCCCCCCCCC)CC(O)CCCCCCCCCCCC)CC(O)CCCCCCCCCCCC` (stereo not drawn) [E-C14], for which, in the data set on DC2.4 cells, the “Cell Viability” value is given as greater than 99.0%, the “Positive Rate (EGFP)” value worked out at 84.3% and the “Fluorescence Intensity” value came to 0.45.

Regarding `CCCCCCCCCCCCC(O)CN(CCOCCN(CCOCCN(CC(O)CCCCCCCCCCCC)CC(O)CCCCCCCCCCCC)CCN1CCN(C)CC1)CC(O)CCCCCCCCCCCC` (stereo not drawn) [F-C14], in the data set with DC2.4 cells, the “Cell Viability” value amounted to 93.2%, the “Positive Rate (EGFP)” value worked out at 73.5% and the “Fluorescence Intensity” value was found to be 0.33.

Regarding `CCCCCCCCCCCCC(O)CN(CCOCCOCCN(CCOCCOCCN(CC(O)CCCCCCCCCCCC)CC(O)CCCCCCCCCCCC)CCN1CCN(C)CC1)CC(O)CCCCCCCCCCCC` (stereo not drawn) [G-C14], in the data set on DC2.4 cells, the “Cell Viability” value is on record as greater than 99.0%, the “Positive Rate (EGFP)” value was 67.5% and the “Fluorescence Intensity” value was 0.30.

Take `CCCCCCCCCCCCC(O)CN(CCOCCOCCOCCN(CCOCCOCCOCCN(CC(O)CCCCCCCCCCCC)CC(O)CCCCCCCCCCCC)CCN1CCN(C)CC1)CC(O)CCCCCCCCCCCC` (stereo not drawn) [H-C14]: in the data set with DC2.4 cells, the “Cell Viability” value was determined as 91.7%, the “Positive Rate (EGFP)” value came to 66.8% and the “Fluorescence Intensity” value is recorded as 0.52.
